Key:
head and neck cancer = experiment: ex-US clinical study, daily M4N with or without G4N followed by surgical resection; type: in vivo, humans
[1] = dog, in vivo, iv
Procedure: In this example the Maximal Tolerable Dose (MTD) of Dimethyl Sulfoxide (DMSO)] to male and female Beagle Dogs was determined.
Thus the M4N-DMSO group animals were administered with M4N-DMSO with eight intravenous injections via the non-VAP jugular vein every 30 minutes over a 4-hour period. This frequency of delivery mimicked the delivery of the test article using the infusion pump.
The dogs in the DMSO group were observed throughout the jugular vein injection period and for at least one hour following the last (eighth) injection.

[2] = Toxicokinetic (TK) analysis of M4N serum concentration in dogs; type: in vivo, Beagle Dogs; details: DMSO vehicle, doses up to 100 mg/kg
Procedure: Blood samples from the DMSO group animals were collected via the cephalic vein on SD 1, SD 3, SD 6, and SD 8 at the following timepoints: predose, 0.25, 0.5, 1, 2, 4, 8, and 16 hours following the final injection dose of M4N-DMSO. Blood samples collected from the animals were processed for plasma and serum for TK analysis.
The plasma and serum samples were sent to MedTox Laboratories, the Sponsor's designated laboratory for TK analysis. TK analysis of M4N plasma and serum concentration-time data was performed using a validated method (M200406) by MedTox Laboratories and analyzed by noncompartmental methods to obtain estimates of toxicokinetic parameters (where data allow), but not necessarily limited to, Cmax, Tmax and AUC.

[3] = system: refractory head and neck carcinomas
Procedure: All patients were diagnosed with refractory head and neck carcinomas.
Nine (9) subjects were dosed with an intratumoral dose of M4N given weekly for three weeks, at doses of 5 mg/cm^3 tumor volume (2 subjects), 10 mg/cm^3 (2 subjects) 15 mg/cm^3 (3 subjects) and 20 mg/cm^3 (2 subjects). Doses up to 495 mg weekly for three weeks were administered.

[4] = system: HPV-16 transformed immortal mouse epithelial cells (C3); details: cited from earlier work; for tumor growth: intratumor injection, separately or together, C3 tumors in mice
[5] = DMSO; cited from earlier work
β-amyloid fibrils = details: in vitro; cited from earlier work
fAβ(1-40) = target: T1, fAβ(1-40) (Homo sapiens, UniProt P05067); details: within a few hours at pH 7.5 at 37° C.; cited from earlier work
T1 construct: broke down fAβ(1-40)

fAβ(1-42) = target: T2, fAβ(1-42) (Homo sapiens, UniProt P05067); details: within a few hours at pH 7.5 at 37° C.; cited from earlier work
T2 construct: fAβ(1-42) within a few hours at pH 7.5

[6] = rodents; cited from earlier work
[7] = in vivo; cited from earlier work
[8] = system: mammary carcinoma MX-1 xenograft; details: intratumoral single dose or topical application, athymic mice; cited from earlier work
Solubility = type: physicochemical

T2 sequence (P05067 672-713 limits assumed): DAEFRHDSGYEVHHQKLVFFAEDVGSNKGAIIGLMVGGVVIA
T1 sequence (P05067 672-711 limits assumed): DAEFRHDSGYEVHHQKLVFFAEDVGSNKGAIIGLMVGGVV

COc1ccc(C[C@@H](C)[C@@H](C)Cc2ccc(OC)c(OC)c2)cc1OC [M4N, meso-1,4-bis(3,4-dimethoxyphenyl)-2,3-dimethylbutane]
dosage delivered without drug-related toxicity (head and neck cancer; for up to five days, with or without G4N 20 mg per day): 20 mg per day | patients remaining disease free (head and neck cancer; long-term follow ups of the ex-US study): 64% | efficacy in terms of induction of necrosis (head and neck cancer; patients that completed the treatment, daily dosing then resection): over 80% | dose safely administered [1]: up to 100 mg/kg | blood levels of M4N achieved [2]: up to 14,000 ng/ml | damage to healthy tissue surrounding the tumor ([3]; in vivo): No damage | dose delivered without drug-related toxicity ([3]; in vivo): up to 495 mg | dosing related adverse events ([3]; in vivo): mild or moderate pain on injection | hematology parameters ([3]; in vivo): No changes attributable to drug | liver function tests (LFTs) ([3]; in vivo): Sporadic, and non-reproducible mild elevations | number of Serious Adverse Events (SAE) ([3]; in vivo): 6 | relation of SAEs to study medication ([3]; in vivo): unlikely or not related to study medication | tolerability of dosing ([3]; in vivo): generally well tolerated | patients with radiologically confirmed tumor volume reduction ([3]; patients completing three doses): three of the six | efficacy in terms of induction of necrosis ([3]; patients that completed the treatment, weekly escalating doses): over 80% | subjects with drug related tumor necrosis after injection ([3]; subjects receiving three doses): 5 of 6 | penetration of tumor tissues ([4]; composition of M4N in DMSO injected into the tumor): penetrate most but not all of the tumor tissues | tumor growth [4]: some evidence of suppression of tumor growth | solubility in dimethyl sulfoxide [5]: soluble

CC(Cc1ccc(O)c(O)c1)C(C)Cc1ccc(O)c(O)c1 (centres unmarked) [NDGA, nordihydroguaiaretic acid]
β-amyloid fibrils (fAβ) formation (β-amyloid fibrils): inhibited | breakdown of fAβ(1-40) (fAβ(1-40)): dose-dependently broke down | breakdown of fAβ(1-42) (fAβ(1-42)): dose-dependently broke down | serum glucose [6]: reducing | serum non-esterified fatty acids [6]: reducing | serum triglyceride [6]: reducing | hypertension [7]: reducing hypertension | tumor growth [8]: Some evidence of inhibition of tumor growth

C[C@H](Cc1ccc(OC(=O)CN(C)C)c(OC(=O)CN(C)C)c1)[C@@H](C)Cc1ccc(OC(=O)CN(C)C)c(OC(=O)CN(C)C)c1 [G4N, meso-1,4-bis[3,4-(dimethylaminoacetoxy)phenyl]-(2R,3S)-dimethylbutane]
water solubility (Solubility): water-soluble | tumor growth [4]: some evidence of suppression of tumor growth

— patent publication US20060141029A1, “Methods and compositions for delivery of catecholic butanes for treatment of diseases” (priority 2003, published 2006)
